# From US6025356A, “Disubstituted trans-3,4,4a,5,6,10b-hexahydro-2H-naphth[1,2-b]-1,4-oxazines” (Adir et Compagnie, priority 1997, dated 2000)
# Tests used:
# [1] = "Rotations" induced by dopaminergic agonists in rats having a unilateral lesion of the Substantia nigra; assay type: in vivo, male Wistar rats; settings: Rattus norvegicus, sc; read-out: dose from which active in the rotation test
# [2] = tested on: dopaminergic cells in the ventral tegmentum area of the rat; test: Test recording the unitary extracellular electrical activity in the ventral tegmentum area of the rat; assay type: in vivo; settings: n = 4
# Experimental: 1. Test recording the unitary extracellular electrical activity in the ventral tegmentum area of the rat
# The administration of a dopaminergic agonist decreases the discharge frequency of neurons in a dose-dependent manner. That effect is reversed by haloperidol, a dopaminergic antagonist.
# The rats are anaesthetised with chloral hydrate (400 mg/kg, i.p.) and placed in a stereotactic apparatus (Unimecanique, France) after catheterisation of the femoral vein. The level of anaesthesia is maintained by i.p. administration of chloral hydrate every hour; the rectal temperature is maintained at 37±1° C. by means of a thermostatically controlled heated cover. A tungsten microelectrode (10 M.OMEGA., 1 μm) is inserted using an electronic microinsertion device (Unimecanique, France) into the ventral tegmentum area (AP: -5.5/bregma; L: 0.7; H: 7.0-8.5/dura; Paxinos and Watson atlas, 1986). The potentials of the dopaminergic cells are recognised by their morphology (triphasic potentials+/-/+, of a duration greater than 3 msec), their discharge rhythm, whether regular or in bursts of decreasing amplitude, and their discharge frequency, which is from 2 to 8 Hz. A single cell per animal is used for the recording.
# After a period≥5 min. (basal activity) and a first injection of carrier (distilled water to which a few drops of dilute lactic acid have been added; pH adjusted to 5 with 1N NaOH), the products of the invention are administered intravenously in cumulatively increasing doses at intervals of 2-3 min..
# Acquisition of the data is effected by the software Spike2 (Cambridge Electronic Design, England). The discharge frequency is measured over one minute at the maximum variation between each injection and is expressed as a percentage variation in relation to the basal activity (average of the 5 minutes preceding the first treatment) defined as 100%. The effect of the products is evaluated statistically by a variance analysis over repeated measurements, followed by a Newman-Keuls test for comparing the effects of different doses with the effect of the carrier.
# [3] = molecular target: T1, human dopamine D2 receptor (Homo sapiens, UniProt P14416); test: human D2 and D3 receptor binding study (D2)
# T1 construct: expressed in transfected cells
# Experimental: (§1) A. In vitro: human D2 and D3 receptor binding study
# (§2) CHO (Chinese Hamster Ovary) cells are transfected in a stable manner with the gene encoding the human dopamine D2 or D3 receptor in accordance with methods known from the literature. The native cells are deficient in the enzyme DHFR (DiHydroFolate Reductase). […] The transfections are carried out using Lipofectin (Gibco). The CHO cells co-transfected with the human D2 receptor and the phleomycin resistance gene are selected for their resistance to the presence of that antibiotic in the culture medium. The cells transfected with the human D3 receptor are selected in the presence of methotrexate in a medium containing no hypoxanthine/thymidine. The compositions of the culture media used are: for CHO-D2 : DMEM (Dulbecco's Modified Eagle Medium) supplemented with 10% foetal calf serum and hypoxanthine/thymidine; and for CHO-D3 : DMEM supplemented with 10% dialysed foetal calf serum. The cells are harvested at confluence and the membranes are then prepared.
# (§3) After a few minutes in the presence of 0.2% trypsin, the cells are recovered and centrifuged at 2,000 g for 5 minutes. […]
# (§4) The ranges of concentration of each compound include at least seven points determined in triplicate, each experiment being repeated at least twice.
# (§5) The recovered filters are then counted using a gamma counter. […]
# [4] = molecular target: T2, human dopamine D3 receptor (Homo sapiens, UniProt P35462); test: human D2 and D3 receptor binding study (D3)
# T2 construct: expressed in transfected cells
# Experimental: as §1, §2, §3, §4, §5
# Forced swimming test = assay type: in vivo, rat
# Description: The forced swimming test (Porsolt R. et al, Eur. J. Pharmacol., 1978, 47, 379-91) is a behavioural test which comprises inducing a state of despair in the rat by placing the naive animal in an enclosure full of water, from which it cannot escape, for a period of fifteen minutes. For the first five to ten minutes the rat struggles vigorously, but finally adopts an immobile posture during the last part of the test. Placed in the same enclosure the next day, the animal remains immobile for the majority of the test (5 minutes' duration). The anti-depressants reduce the duration of immobility of the rat during the test.
# The experiment is carried out over two days, with a 24-hour interval, on rats of an average weight of 170 g, housed the day before in individual cages, with free access to food and drink.
# On the first day, each rat is placed for fifteen minutes in a glass cylinder (20 cm diameter ×40 cm high) filled to a height of 15 cm with water maintained at 25° C. On the second day, the animal is placed in a cylinder again for a period of five minutes; the total period of immobility (in seconds) of the rat is measured. The product or solvent is administered to the animal thirty minutes before the beginning of the test.
# [5] = [125I]-iodosulpride, CHO membranes, 30 min at 30° C., pKi = -log Ki
# T1 sequence (P14416 whole entry): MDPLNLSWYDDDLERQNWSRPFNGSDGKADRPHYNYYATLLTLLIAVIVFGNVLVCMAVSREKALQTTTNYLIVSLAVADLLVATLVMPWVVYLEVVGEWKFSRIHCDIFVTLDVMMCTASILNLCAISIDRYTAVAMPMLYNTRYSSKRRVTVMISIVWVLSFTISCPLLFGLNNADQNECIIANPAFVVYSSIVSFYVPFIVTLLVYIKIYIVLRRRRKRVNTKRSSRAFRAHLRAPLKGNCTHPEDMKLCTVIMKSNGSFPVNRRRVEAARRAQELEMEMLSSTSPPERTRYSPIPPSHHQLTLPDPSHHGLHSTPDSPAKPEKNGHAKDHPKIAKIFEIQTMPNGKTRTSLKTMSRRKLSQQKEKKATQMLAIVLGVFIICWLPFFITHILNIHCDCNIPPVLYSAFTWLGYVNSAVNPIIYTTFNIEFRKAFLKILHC
# T2 sequence (P35462 whole entry): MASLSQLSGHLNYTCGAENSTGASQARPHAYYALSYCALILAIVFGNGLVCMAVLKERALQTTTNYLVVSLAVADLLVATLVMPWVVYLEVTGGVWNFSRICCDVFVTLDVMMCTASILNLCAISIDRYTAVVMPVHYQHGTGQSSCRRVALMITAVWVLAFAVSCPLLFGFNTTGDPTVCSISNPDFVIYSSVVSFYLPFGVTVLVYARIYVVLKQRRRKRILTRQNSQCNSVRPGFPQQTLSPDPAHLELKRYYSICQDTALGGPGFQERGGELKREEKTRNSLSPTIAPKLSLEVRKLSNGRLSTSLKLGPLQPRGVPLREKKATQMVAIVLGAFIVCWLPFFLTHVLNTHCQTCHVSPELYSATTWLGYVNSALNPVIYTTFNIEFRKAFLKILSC
compound,measurement,setting,value
"CCCN1CCO[C@@H]2c3cc(C(N)=O)ccc3CC[C@H]21 (single isomer, unassigned) [Example 3, (+)-Trans-3,4,4a,5,6,10b-hexahydro-9-carbamoyl-4-propyl-2H-naphtho[1,2-b]-1,4-oxazine]",minimal effective dose,[1],0.04 mg/kg
same,"discharge frequency, percentage in relation to basal activity (100%)","[2]; 0.5 μg/kg i.v., cumulative doses, mean ± standard error of the mean",80.4 ± 5.54%
same,"discharge frequency, percentage in relation to basal activity (100%)","[2]; 1 μg/kg i.v., cumulative doses, mean ± standard error of the mean, p ≤ 0.05",56.6 ± 11.4%
same,"discharge frequency, percentage in relation to basal activity (100%)","[2]; 2 μg/kg i.v., cumulative doses, mean ± standard error of the mean, p ≤ 0.05",25.0 ± 8.68%
same,"discharge frequency, percentage in relation to basal activity (100%)","[2]; 4 μg/kg i.v., cumulative doses, mean ± standard error of the mean, p ≤ 0.05",1.56 ± 1.12%
same,"discharge frequency, percentage in relation to basal activity (100%)","[2]; 8 μg/kg i.v., cumulative doses, p ≤ 0.05",0.00%
same,Ki,[3]; [5],316 nM
same,Ki,[4]; [5],10 nM
same,ED50,"Forced swimming test; Rattus norvegicus, sc, read-out: ID50 (period of immobility)",0.41 mg/kg
same,period of immobility (result in words),Forced swimming test; s.c.,reduces the period of immobility of the animal in a dose-dependent manner
"O=C(CCCN1CCC(O)(c2ccc(Cl)cc2)CC1)c1ccc(F)cc1 [haloperidol, reference compound]","discharge frequency, percentage in relation to basal activity (100%)","[2]; haloperidol 16 μg/kg i.v., reversal after cumulative doses of Example 3, mean ± standard error of the mean",110.5 ± 14.9%
"[^125 I]-iodosulpride [[125I]-iodosulpride, reference compound]",Kd,"[3]; radioligand, read-out: Kd (dissociation constant) for the human D2 receptor",0.5 nM
same,Kd,"[4]; radioligand, read-out: Kd (dissociation constant) for the human D3 receptor",1.31 nM
